This note sets out measurements from ChEMBL document CHEMBL4421732, “Use of small molecule inhibitors targeting EYA tyrosine phosphatase” (2017).

For experiment [1], the system named is Aorta. As to the kind of experiment: Inhibition of micro-vessel branching in […] mouse aorta cultured in collagen gels assessed as reduction in aortic ring sprouting at 7.5 uM by aortic ring sprouting assay. The experiment is classed as functional, tissue-based.
Experiment [2] concerns Aorta. Put plainly: Inhibition of micro-vessel branching in […] mouse aorta cultured in collagen gels assessed as reduction in initial sprouting at 7.5 uM by aortic ring sprouting assay. Format: functional, tissue-based.
Experiment [3] deals with Aorta. As to the kind of experiment: Inhibition of micro-vessel branching in […] mouse aorta cultured in collagen gels assessed as attenuation of branching at 7.5 uM by aortic ring sprouting assay. The experiment is classed as functional, tissue-based.
The subject of a further experiment is HUVEC. As to the kind of experiment: Inhibition of cell proliferation of HUVEC incubated for 3 days by WST8 dye based assay relative to control. Format: functional, Homo sapiens. As to conditions: for inhibition: Homo sapiens. A general note: Formazan colour is commonly taken as a measure of viable cells.
Experiment [4] is filed under the species Danio rerio. Put plainly: Induction of vasculature defects in 5.25 hpf stage FLK1-GFP transgenic Zebrafish embryos assessed as reduction in intersegmental vessel number and extension measured at 24 hpf stage by fluorescence microscopy. Format: functional, organism-based.
Experiment [5] is filed under the species Danio rerio. As to the kind of experiment: Induction of general morphology changes in 20 hpf stage FLK1-GFP transgenic Zebrafish embryos measured at 24 hpf stage by fluorescence microscopy. Format: functional, organism-based.
Experiment [6] is filed under the species Danio rerio. As to the kind of experiment: Induction of vasculature defects in 5.25 hpf stage FLK1-GFP transgenic Zebrafish embryos assessed as reduction of intersegmental vessels at 0.25 uM measured at 24 hpf stage by fluorescence microscopy. The experiment is classed as functional, organism-based.
In experiment [7] the target is T1, Protein phosphatase EYA2 (Homo sapiens) (UniProt O00167).
T1 sequence (whole entry): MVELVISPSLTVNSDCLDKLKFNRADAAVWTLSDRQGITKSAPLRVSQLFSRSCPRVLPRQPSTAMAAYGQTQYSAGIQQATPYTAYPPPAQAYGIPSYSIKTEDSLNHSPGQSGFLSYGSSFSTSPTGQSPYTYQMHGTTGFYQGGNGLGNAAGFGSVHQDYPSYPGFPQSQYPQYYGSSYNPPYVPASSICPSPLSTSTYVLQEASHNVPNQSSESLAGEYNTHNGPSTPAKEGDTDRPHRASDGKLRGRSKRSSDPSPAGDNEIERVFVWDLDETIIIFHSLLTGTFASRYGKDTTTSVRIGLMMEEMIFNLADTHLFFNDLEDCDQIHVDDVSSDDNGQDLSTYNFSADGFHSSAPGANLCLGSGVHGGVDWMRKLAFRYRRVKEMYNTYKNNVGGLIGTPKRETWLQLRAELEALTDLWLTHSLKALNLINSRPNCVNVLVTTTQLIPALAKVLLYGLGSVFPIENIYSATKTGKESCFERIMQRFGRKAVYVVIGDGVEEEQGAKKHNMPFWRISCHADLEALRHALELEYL
As to the kind of experiment: Inhibition of EYA2 (unknown origin) stably transfected in human MCF10A cells assessed as inhibition of cell migration at 7.5 uM by transwell assay. Format: cell-based.

The species named for experiment [8] is Danio rerio. Put plainly: Induction of vasculature defects in 20 hpf stage FLK1-GFP transgenic Zebrafish embryos measured at 24 hpf stage by fluorescence microscopy. The experiment is classed as functional, organism-based.
Experiment [9] addresses T2, Protein phosphatase EYA3 (Homo sapiens) (UniProt Q99504).
T2 sequence (whole entry): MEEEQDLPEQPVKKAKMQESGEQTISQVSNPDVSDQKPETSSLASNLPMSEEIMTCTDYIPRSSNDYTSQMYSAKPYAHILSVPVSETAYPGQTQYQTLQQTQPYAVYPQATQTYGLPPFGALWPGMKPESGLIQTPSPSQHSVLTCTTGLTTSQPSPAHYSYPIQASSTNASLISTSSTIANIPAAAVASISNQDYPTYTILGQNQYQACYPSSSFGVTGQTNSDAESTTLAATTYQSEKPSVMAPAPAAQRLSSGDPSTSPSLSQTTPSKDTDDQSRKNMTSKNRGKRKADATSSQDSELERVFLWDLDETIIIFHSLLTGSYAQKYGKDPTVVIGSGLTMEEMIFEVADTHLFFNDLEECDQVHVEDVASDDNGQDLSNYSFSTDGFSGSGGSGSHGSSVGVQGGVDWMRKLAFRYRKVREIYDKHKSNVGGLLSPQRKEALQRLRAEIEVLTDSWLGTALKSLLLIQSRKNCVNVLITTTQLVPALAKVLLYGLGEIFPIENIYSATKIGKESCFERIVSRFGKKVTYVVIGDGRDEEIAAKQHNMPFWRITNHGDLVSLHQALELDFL
Particulars: 3 to 10 uM.
Description: Competitive inhibition of poly-histidine and GST-tagged full length human Eya3 isoform 2 (127 to 573 residues) at 3 to 10 uM using para-nitrophenol phosphate substrate incubated for 30 mins

Experiment [10] addresses T2, Protein phosphatase EYA3 (Homo sapiens). Particulars: 5 to 10 uM.
Description: Inhibition of poly-histidine and GST-tagged full length human Eya3 isoform 2 (127 to 573 residues) assessed as reduction in Km at 5 to 10 uM using para-nitrophenol phosphate substrate incubated for 30 mins
For experiment [11] the target is unchanged. Particulars: 5 to 10 uM. This is another data set of the same source.
Description: Inhibition of poly-histidine and GST-tagged full length human Eya3 isoform 2 (127 to 573 residues) assessed as reduction in Vmax at 5 to 10 uM using para-nitrophenol phosphate substrate incubated for 30 mins

Calls of active or inactive are those of the source. The calls are words filed in the database; no cut-off is given here. Some results are limits rather than exact numbers.

As to `Cc1oc2ccccc2c1C(=O)c1cc(I)c(O)c(I)c1`, the inhibition result with Aorta [1], with Aorta [2] and in the experiment on Aorta [3] was “Dose-dependent effect” in each case.
For `CC(O)c1oc2ccccc2c1C(=O)c1cc(Br)c(O)c(Br)c1` (configuration not stated), the inhibition entry with Aorta [1], in the experiment on Aorta [2] and with Aorta [3] was “Dose-dependent effect” each time.
`Cc1oc2ccccc2c1C(=O)c1ccc(O)c(I)c1`: the inhibition entry in the experiment with Aorta [1], with Aorta [2] and in the experiment with Aorta [3] was “Dose-dependent effect” in each case.
Consider `CCc1oc2ccc(O)cc2c1C(=O)c1cc(Br)c(O)c(Br)c1`, for which the inhibition entry with Aorta [1], in the experiment on Aorta [2] and in the experiment on Aorta [3] was “Dose-dependent effect” throughout.
Regarding `CCc1oc2cc(O)ccc2c1C(=O)c1cc(Br)c(O)c(Br)c1`, the inhibition result in the experiment with Aorta [1], with Aorta [2] and in the experiment with Aorta [3] was “Dose-dependent effect” each time. The “inhibition (INH)” value in the experiment on HUVEC is reported as more than 50%.
`CCCCc1oc2ccccc2c1C(=O)c1ccc(O)cc1`: the Activity result in the experiment listed under Danio rerio [4] is “Dose-dependent effect”. Besides, the result in the experiment filed under Danio rerio [5], in the experiment filed under Danio rerio [6] and in the experiment listed under Danio rerio [8] was inactive. Also, the inhibition entry in experiment [7] was “Active”.
`CCc1oc2ccccc2c1C(=O)c1ccc(O)cc1`: the Activity result in the experiment filed under Danio rerio [4] was “Dose-dependent effect”. For the same molecule, the outcome in the experiment filed under Danio rerio [5], in the experiment listed under Danio rerio [6] and in the experiment listed under Danio rerio [8] was inactive. The inhibition result in experiment [7] is “Active”. In addition, the inhibition entry in the experiment with HUVEC is “inactive”.
Regarding `CC(O)CCc1oc2ccccc2c1C(=O)c1cc(I)c(O)c(I)c1` (configuration not stated), the inhibition entry in the experiment on Aorta [1], with Aorta [2] and with Aorta [3] was “inactive” throughout.
For the molecule `CCc1oc2ccccc2c1C(=O)c1cc(Br)c(O)c(Br)c1`, the inhibition result (in experiment [9]; in the experiment on HUVEC) was “inactive” throughout. Further, the inhibition entry in experiment [10], in experiment [11] and in [7] was “Active” throughout. Moreover, in the experiment listed under Danio rerio [4], the Activity entry is “Dose-dependent effect”. For the same molecule, the result in the experiment listed under Danio rerio [5] and in the experiment listed under Danio rerio [8] was inactive. In the experiment listed under Danio rerio [6], the outcome was Active.
Consider `CCCCc1oc2ccccc2c1C(=O)c1cc(I)c(O)c(I)c1`, for which the inhibition result in the experiment on Aorta [1], with Aorta [2] and in the experiment with Aorta [3] was “Dose-dependent effect” in each case.
